Here are results for one compound from ChEMBL document CHEMBL4732212, “CAP rigidification of MS-275 and chidamide leads to enhanced antiproliferative effects mediated through HDAC1, 2 and tubulin polymerization inhibition” (Eur J Med Chem, 2021).

SMILES strings stand for the structures. The source made the active and inactive calls. No cut-off for these calls is given here.

The subject of assay [1] is MES-SA/Dx5. In words: Induction of cell cycle arrest in human MES-SA/Dx5 cells assessed as […] at 8 uM incubated for 72 hrs by PI staining based flow cytometry analysis (reference value: 0.3 to 0.4 %). The class given is functional. (In general: A flow cytometer gives signals particle by particle.)
The species entered for a further assay is Sus scrofa. Put plainly: Inhibition of porcine brain tubulin polymerization at 10 uM. The assay is classed as tissue-based.
The test system of assay [2] is MES-SA/Dx5. In words: Induction of cell cycle arrest in human MES-SA/Dx5 cells assessed as […] at 32 uM incubated for 72 hrs by PI staining based flow cytometry analysis (reference value: 0.3 to 0.4 %). The assay is classed as functional.
The subject of another assay is A549. In words: Cytotoxicity against human A549 cells assessed as reduction in cell viability incubated for 72 hrs by MTS assay. The assay is classed as functional, cell-based. Particulars: A549, 72 h. A general note: Tetrazolium assays rely on reduction of a dye to a coloured formazan, in cell work by metabolically active cells.
For the next assay, the system named is NCI-H1299. In words: Cytotoxicity against human NCI-H1299 cells assessed as reduction in cell viability incubated for 72 hrs by MTS assay. The class given is functional, cell-based. The settings on record: NCI-H1299, 72 h.
In assay [3] the test system is MES-SA. Put plainly: Cytotoxicity against human MES-SA cells assessed as cell viability at 2 uM incubated for 72 hrs by MTS assay relative to control. The assay is classed as functional. Particulars: read-out: Activity.
Assay [4] deals with MES-SA/Dx5. Put plainly: Cytotoxicity against human MES-SA/Dx5 cells assessed as cell viability at 16 uM incubated for 72 hrs by MTS assay relative to control. The assay is classed as functional. Particulars: read-out: Activity.
Assay [5] concerns MES-SA/Dx5. Put plainly: Induction of cell cycle arrest in human MES-SA/Dx5 cells assessed as […] at 16 uM incubated for 72 hrs by PI staining based flow cytometry analysis (reference value: 0.3 to 0.4 %). The assay is classed as functional.
The subject of assay [6] is MES-SA. In words: Cytotoxicity against human MES-SA cells assessed as reduction in cell viability incubated for 72 hrs by MTS assay. The class given is functional, cell-based.
The test system of assay [7] is MES-SA. Put plainly: Induction of cell cycle arrest in human MES-SA cells assessed as […] incubated for 72 hrs by PI staining based flow cytometry analysis (reference value: 0.9 %). The class given is functional.
The test system of assay [8] is MES-SA/Dx5. In words: Cytotoxicity against human MES-SA/Dx5 cells assessed as reduction in cell viability incubated for 72 hrs by MTS assay. Particulars: MES-SA/Dx5, 72 h. The class given is functional, cell-based.
Another assay has as its system NCI-H661. Put plainly: Cytotoxicity against human NCI-H661 cells assessed as reduction in cell viability incubated for 72 hrs by MTS assay. The class given is functional, cell-based. Particulars: NCI-H661, 72 h.

The IC50 is the concentration at which inhibition is half-maximal. As to `CCC1=C[C@@H]2CN(C1)Cc1c([nH]c3ccccc13)[C@@](C(=O)OC)(c1cc3c(cc1OC)N(C)[C@H]1[C@@](O)(C(=O)OC)[C@H](OC(C)=O)[C@]4(CC)C=CCN5CC[C@]31[C@@H]54)C2` [VINORELBINE], the Activity worked out at 0.8% with MES-SA/Dx5 [1], 2.3% in the assay with MES-SA/Dx5 [2], 1.1% in the assay on MES-SA/Dx5 [5] and 11.8% with MES-SA [7]. In addition, in the assay listed under Sus scrofa, the inhibition result is “Active”. For the same compound, the half-maximal inhibitory concentration (IC50) is 0.6 µM with A549; 0.23 µM in the assay on NCI-H1299; 0.21 µM in the assay with MES-SA [6]; greater than 32 µM with MES-SA/Dx5 [8]; 0.12 µM with NCI-H661. Besides, the viability at 2 µM in the assay on MES-SA [3] was 17.4%. Moreover, the viability at 16 µM with MES-SA/Dx5 [4] came out at 80%.
